{"source": "ChEMBL document CHEMBL5137061", "about": "“Design and Measurement of Drug Tissue Concentration Asymmetry and Tissue Exposure-Effect (Tissue PK-PD) Evaluation” (J Med Chem, 2022)", "key": {"[1]": {"test": "Tmax in BALBnu/CrlCrlj mouse xenografted with human KM12 cell tumor at 0.06 to 0.6 mg/kg, po measured after 48 hrs", "type": "ADME, organism-based", "conditions": "in vivo, dose 0.06-0.6 mg/kg"}, "[2]": {"test": "Tmax in BALBnu/CrlCrlj mouse at 0.1 to 1 mg/kg, po measured for 1 to 24 hrs", "type": "ADME, organism-based", "conditions": "in vivo, dose lower 0.1 mg/kg, time lower 1 hrs, dose upper 1 mg/kg, time upper 24 hrs"}}}
{"smiles": "CS(=O)(=O)c1ccc(C(F)(F)F)cc1NC(=O)Nc1cnc(Oc2ccc(-c3cc(Cl)cnc3N)cc2)nc1", "note": "[ONO-7579]", "values": [{"measurement": "Tmax", "setting": "[1]", "value": 7, "unit": "h"}, {"measurement": "Tmax", "setting": "[2]", "value": 2, "unit": "h"}]}
